Where two headings read alike, the source gives them in different places.
Columns and labels:
[1] = tested on: HL-60 human leukaemia; assay: Inhibition of tumor cell proliferation at 10 μM, Model A: MTT method; format: cell-based; conditions: HL-60, MTT method, read-out: Model A Inhibitory rate (%)
Source text: (§1) The evaluation of the compounds according to the present invention on the inhibition rate of the proliferation of four different tumor cells, using the routine method for anti-tumor activity tests in the pharmaceutical filed, for example the method described in the following literature: (J. Immuno/Method, 1983, 65, 55).

[2] = tested on: BGC-823 human gastric cancer; assay: Inhibition of tumor cell proliferation at 10 μM, Model B: SRB method; format: cell-based; conditions: BGC-823, SRB method, read-out: Model B Inhibitory rate (%)
Source text: as §1

[3] = tested on: Bel-7402 human liver cancer; assay: Inhibition of tumor cell proliferation at 10 μM, Model C: SRB method; format: cell-based; conditions: Bel-7402, SRB method, read-out: Model C Inhibitory rate (%)
Source text: as §1

[4] = tested on: KB human nasopharyngeal cancer; assay: Inhibition of tumor cell proliferation at 10 μM, Model D: SRB method; format: cell-based; conditions: read-out: Model D Inhibitory rate (%)
Source text: as §1

[5] = tested on: human leukaemia HL-60 cells; assay: EC50 on proliferation of HL-60 cells (MTT, 48 h); format: cell-based; conditions: read-out: HL-60 EC50 (nmol)
Experimental: (§2) EC50 values of the compounds according to the present invention on the proliferation of human leukaemia HL-60 cells and Bel-7402 cells were determined by using the following method, and the results are shown in Table 2.
Testing method for EC50 values on the human leukaemia HL-60 cells: The human leukaemia HL-60 cells were cultured in vitro. The cells were collected after growth to logarithmic phase, and centrifugated at 1000 rpm for 5 min. The supernatant was discarded and the cells were suspended in an appropriate amount of medium. The cell concentration was adjusted to 1.2×10^4/mL. The cells were seeded into 96-well culture plates in 90 μL per well. For each well of the drug treatment groups, 10 μL of medium-diluted drug was added, whereas for the blank control groups, the same amount of medium was added. Every testing drug was set up for three parallel wells, and also three control wells with only testing drugs (without cell) were set up. Negative control groups were medium containing 0.5% DMSO. After the plate was incubated in an incubator for 48 h, 10 μL of 5 mg/mL MTT was added into each well, and then the plate was placed for 3 h at 37° C. 100 μL of ternary solution (5% SDS, 10 mM HCl, 5% isopropanol) was added into each well, and the plate was kept at 37° C. overnight. The absorbance (OD) was measured at 595 nm/620 nm. The EC50 values were calculated by using Prism Graphpad statistical software.

[6] = tested on: Bel-7402 cells; assay: EC50 on proliferation of Bel7402 cells (SRB, 48 h); format: cell-based; conditions: Homo sapiens, read-out: Bel7402 EC50 (nmol)
Experimental: as §2
Testing method for ED50 values on the human Be17402ce11: After the cells were incubated with the addition of the drugs for 48 h, the plates were taken out. 50 μL of pre-cooled 500 g/L trichloroacetic acid was added into each well. The plates were kept in 4° C. refrigerator for 1 h after standing for 5 min, taken out, washed with deionized water for 5 times, and dried in the air. After the plates were completely dried, 100 μL of 0.4% SRB (formulated in 1% acetic acid) was added into each well. Following staining for 20 min, the staining solution was discarded, and the residue was washed with 1% acetic acid for 5 times to remove the uncombined dye. After being dried in the air, the residue was dissolved in 150 μL of 10 mmol/L unbuffered
Tris basic solution (pH=10.5), and oscillated in an oscillator for 5 min. The absorbance of each well at 490 nm was measured with TECAN enzyme mark instrument. The cells in background control plates were treated in the same way for measuring OD490. The EC50 values were calculated by using Prism Graphpad statistical software.

[7] = tested on: SK-BR-3 (cell line of erbB2 over-expression); assay: MTT assay on erbB2 over-expressing cell line (72 h); format: cell-based; conditions: Homo sapiens, read-out: SK-BR-3 (μM), EC50
Experimental: (§3) Experimental operations: Human breast cancer SK-BR-3, MDA-MB-468 cells and human colon cancer HCT 116 cells were cultured in vitro. The cells were collected after growth to logarithmic phase, and centrifugated at 1000 rpm for 5 min. The supernatant was discarded, and the cells were suspended with an appropriate amount of medium. The cell concentration was adjusted to 3.5×10^3/mL. Then the cells were seeded into 96-well culture plates in 100 μL per well, and placed in an incubator (37° C., 5% CO2) to be incubated for 24 h. The testing drugs were added, and the negative control group was added DMSO with the final concentration of 5%. Each group has three parallel wells. After being incubated in the incubator for 72 h, 20 μL of 5 mg/mL MTT was added into each well, and the plate was placed at 37° C. for 4 h. 200 μL of DMSO was added into each well, and then the plate was oscillated in an oscillator for 30 min. […] The EC50 values were calculated by using Prism Graphpad statistical software.

[8] = tested on: MDA-MB-468 (cell line of EGFR over-expression); assay: MTT assay on EGFR over-expressing cell line (72 h); format: cell-based; conditions: Homo sapiens, read-out: MDA-MB-468 (μM), EC50
Experimental: as §3

[9] = tested on: HCT 116 (cell line of low-expression of both EGFR and erbB2); assay: MTT assay on control cell line with low EGFR and erbB2 expression (72 h); format: cell-based; conditions: Homo sapiens, read-out: HCT 116 (μM), EC50
Experimental: as §3

Structure (SMILES) | inhibition at 10 µM [1] [%] | inhibition at 10 µM [2] [%] | inhibition at 10 µM [3] [%] | inhibition at 10 µM [4] [%] | EC50 [5] [µM] | EC50 [6] [µM] | EC50 ([7]; SK-BR-3 cells, MTT, 72 h) [µM] | EC50 ([8]; MDA-MB-468 cells, MTT, 72 h) [µM] | EC50 ([9]; HCT 116 cells, MTT, 72 h) [µM] | melting point [°C] | EC50 ([7]; SK-BR-3, 72 h) [µM] | EC50 ([8]; MDA-MB-468, 72 h) [µM] | EC50 ([9]; HCT-116, 72 h) [µM]
N#CCCSC(=S)NCc1cccnc1 [Compound 11, 2-cyanoethyl(pyridin-3-ylmethyl)dithiocarbamate] | 72.3 | 60.4 | 86.1 | 93.7 | 0.00146 | 0.0272 | 2.84 | 9.54 | 10.4 | 58 to 60 | – | – | –
[O-][S+](CCSC(=S)NCc1ccco1)Cc1ccccc1 (centres unmarked) [Compound 8, 2-(benzylsulfinyl)ethyl(furan-2-ylmethyl)dithiocarbamate] | 20.9 | 12.3 | 56.9 | 10.5 | – | – | – | – | – | 51 to 52 | – | – | –
CCCCOC(=O)CCSC(=S)NCc1cccnc1 [Compound 47, 2-(butoxycarbonyl)ethyl (pyridin-3-ylmethyl)dithiocarbamate] | – | – | – | – | 0.0254 | 0.00636 | 4.46 | 12.8 | 7.83 | – | – | – | –
OC1CCSC(=S)N1Cc1ccco1 (centres unmarked) [Compound 1, 3-(furan-2-ylmethyl)-4-hydroxy-1,3-thiazinane-2-thione] | 28.4 | 20 | 43.1 | 20.1 | – | – | – | – | – | 42 to 43 | – | – | –
OB(O)CCSC(=S)NCc1cccnc1 [Compound 14, 2-boronoethyl(pyridin-3-ylmethyl)dithiocarbamate] | 41.4 | 68.6 | 91 | 94.5 | – | – | – | – | – | 49 to 50 | – | – | –
CC1=CSC(=S)N(Cc2cccnc2)C1(C)O (centres unmarked) [Compound 12, 4-hydroxy-4,5-dimethyl-3-(pyridin-3-ylmethyl)-3,4-dihydro-2H-1,3-thiazine-2-thione] | 79.9 | 43.9 | 8.66 | 15.2 | – | – | – | – | – | 71 to 72 | – | – | –
OC1CCSC(=S)N1Cc1cccnc1 (centres unmarked) [Compound 9, 4-hydroxy-3-(pyridin-3-ylmethyl)-1,3-thiazinane-2-thione] | 38.9 | 20.3 | 79.5 | 61.3 | – | – | – | – | – | 56 to 57 | – | – | –
[O-][S+](CCSC(=S)NCc1cccnc1)Cc1ccccc1 (centres unmarked) [Compound 16, 2-(benzylsulfinyl)ethyl(pyridin-3-ylmethyl)dithiocarbamate] | 26.1 | 72.3 | 96.1 | 93.1 | – | – | 0.655 | 0.953 | 16.2 | – | – | – | –
COC(=O)CCSC(=S)NCc1ccco1 [Compound 2, 2-(methoxycarbonyl)ethyl(furan-2-ylmethyl)dithiocarbamate] | 19.3 | 16.4 | -1.69 | 3.8 | – | – | – | – | – | 50 to 52 | – | – | –
CC1=CSC(=S)N(Cc2ccco2)C1(C)O (centres unmarked) [Compound 4, 3-(furan-2-ylmethyl)-4-hydroxy-4,5-dimethyl-3,4-dihydro-2H-1,3-thiazine-2-thione] | 23.7 | 15.2 | 2.91 | 5.76 | – | – | – | – | – | 88 to 89 | – | – | –
C[S+]([O-])CCSC(=S)NCc1ccco1 (centres unmarked) [Compound 7, 2-(methylsulfinyl)ethyl(furan-2-ylmethyl)dithiocarbamate] | 11.2 | 16 | -8.68 | 4.07 | – | – | – | – | – | 43 to 45 | – | – | –
CS(=O)(=O)CCNCc1ccc(-c2ccc3ncnc(Nc4ccc(OCc5cccc(F)c5)c(Cl)c4)c3c2)o1 [Lapatinib, reference compound] | – | – | – | – | – | – | – | – | – | – | 4.35 | 19.6 | 42.4
